Measured values from patent US7618997B2, “Diaminofluorescein derivatives” (Sekisui Medical Co., Ltd., priority 2000, dated 2009).
Where two headings read alike, the source gives them in different places.

Key:
[1] = pH characteristics of triazole derivatives (fluorescence intensity vs pH); assay type: physicochemical; conditions: 1 μM in sodium phosphate buffers; for pKa: sodium phosphate buffers of various pH, from fluorescence intensity vs pH
Protocol: Triazole derivatives prepared by the method disclosed in U.S. Pat. No. 5,874,590 (DAF-2T and DAF-5T, the structures thereof are shown below) and DAF-FM T were dissolved at 1 μM in sodium phosphate buffers adjusted to each of the pH values, and fluorescence intensity was measured. The excitation wavelength and fluorescence wavelength were 495-515 (nm) for DAF-2T, 505-520 (nm) for DAF-5T and 495-515 (nm) for DAF-FMT, respectively. […] As for DAF-FM T, a dissociable proton was not present in the triazole ring, and therefore the compound was not influenced by pKa and it gave a constant fluorescence intensity at pH 5.8 or higher.

[2] = Photostability under direct sunlight irradiation; assay type: physicochemical; conditions: 1 μM in 0.1 M sodium phosphate buffer pH 7.4, direct sunlight; versus DAF-1T, DAF-2T, DAF-4T, DAF-5T
Protocol: Photostability of the triazole derivatives produced by the method disclosed in U.S. Pat. No. 5,874,590 (DAF-1T, DAF-2T, DAF-4T and DAF-5T, the structures thereof are shown below) and DAF-FM T was tested by direct irradiation with sunlight. The dyes were each dissolved in 0.1 M sodium phosphate buffer (pH 7.4) at a concentration of 1 μM, and the solution was put into vials and exposed to direct sunlight under fine weather for a certain period of time. Samples were collected from the solutions, and fluorescence intensity was measured and compared with respective initial values.

[3] = tested on: Bovine aorta endothelial cells; test: Measurement of extracellularly produced nitrogen monoxide; assay type: cell-based; conditions: 7 μM in PBS(+), 37° C., Ex 500 nm, Em 515 nm, stimulation with A23187, control with inhibitor of nitrogen monoxide synthetase
Protocol: Bovine aorta endothelial cells were cultured, and the cells were removed with trypsin and collected by centrifugation, and then suspended in 2 ml of PBS(+) in which DAF-FM (7 μM) was dissolved. These cells were transferred to a cell for fluorescence measurement, and fluorescence intensity was measured (Ex.: 500 nm, Em.: 515 nm) at 37° C. with stirring. The cells were stimulated with a calcium ionophore A23187 during the measurement so that the cells generated nitrogen monoxide. As control experiments, an inhibitor of nitrogen monoxide synthetase was added after the above measurement, or alternatively, the measurement was performed in the presence of the inhibitor from the beginning.

[4] = read-out: pKa of the hydroxyl group
[5] = read-out: pKa of the proton of the triazole ring

pKa [1, 4] | pKa [1, 5] | pH at which fluorescence intensity is constant ([1]; Ex/Em 495-515 nm) | Compound | photostability (fluorescence intensity compared with initial value) [2] | fluorescence intensity increase on nitrogen monoxide generation by the cells [3]
6.27 | 7.94 |  | O=C1OC2(c3ccc(O)cc3Oc3cc(O)ccc32)c2cc3nn[nH]c3cc21 [DAF-2T] |  | 
4.38 |  | ≥ 5.8 | Cn1nnc2c3c(ccc21)C1(OC3=O)c2cc(F)c(O)cc2Oc2cc(O)c(F)cc21 [DAF-FM T, 2″,7″-Difluoro-3″,6″-dihydroxy-spiro[1′-methyltriazolo[4′,5′:4,5]isobenzofuran-1(3H),9″-[9H]xanthen]-3-one] | higher photostability than the other triazole compounds | 
4.59 | 7.41 |  | O=C1OC2(c3cc(Cl)c(O)cc3Oc3cc(O)c(Cl)cc32)c2cc3nn[nH]c3cc21 [DAF-5T] |  | 
 |  |  | CNc1ccc2c(c1N)C(=O)OC21c2cc(F)c(O)cc2Oc2cc(O)c(F)cc21 [DAF-FM, 4-Amino-5-(N-methylamino)-2′,7′-difluoro-3′,6′-dihydroxy-spiro[isobenzofuran-1(3H),9′-[9H]xanthen]-3-one] |  | increase of fluorescence intensity was caused by nitrogen monoxide
